Source: PubChem BioAssay AID248 (DTP/NCI, 2004)
Values joined by “and” are separate entries in the source; they are usually repeats but may differ in a detail not shown here. Identical values can stand only once. Inconclusive results and toxic doses are left out.

System: L1210 leukemia ip in BDF1 mice, survival T/C
Experiment: NCI In Vivo Anticancer Drug Screen. Data for tumor model L1210 Leukemia (intraperitoneal) in B6D2F1 (BDF1) mice
Details: endpoint: mean survival time, higher = longer survival
Procedure, shortened: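 In this screen, tumor-bearing mice given compound are compared to those given vehicle, and their survival values are reported as a treated-to-control quotient.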

[1] = dose: 100.0 mg/kg/injection, schedule: Q01DX001 (ip), vehicle: saline
[2] = dose: 200.0 mg/kg/injection, schedule: Q01DX001 (ip), vehicle: saline
[3] = dose: 400.0 mg/kg/injection, schedule: Q01DX001 (ip), vehicle: saline
[4] = dose: 100.0 mg/kg/injection, schedule: Q04DX003 (ip), vehicle: saline
[5] = dose: 200.0 mg/kg/injection, schedule: Q04DX003 (ip), vehicle: saline
[6] = dose: 400.0 mg/kg/injection, schedule: Q04DX003 (ip), vehicle: saline

`NNC(=O)c1ccc(I)cc1` was tested, and the T/C (dose: 100.0 mg/kg/injection, schedule: Q04DX002 (ip), vehicle: saline with Tween-80) was 118 % of control, the T/C (dose: 200.0 mg/kg/injection, schedule: Q04DX002 (ip), vehicle: saline with Tween-80) was 118 % of control and the T/C (dose: 400.0 mg/kg/injection, schedule: Q04DX002 (ip), vehicle: saline with Tween-80) was 107 % of control.

`CCOC(=N)c1ccc(C(=O)OCCOC)cc1` was tested, and the T/C [1] was 97 % of control, the T/C [2] was 97 % of control and the T/C [3] was 97 % of control.

`CCC12CCC(=O)NC1Cc1[nH]c3c(OC)cccc3c1C2` (stereo not given) was tested, and the T/C (dose: 100.0 mg/kg/injection, schedule: Q01DX009 (ip), vehicle: saline sonified) was 93 % of control, the T/C (dose: 200.0 mg/kg/injection, schedule: Q01DX009 (ip), vehicle: saline sonified) was 91 % of control and the T/C (dose: 400.0 mg/kg/injection, schedule: Q01DX009 (ip), vehicle: saline sonified) was 91 % of control.

`CC(=O)C(/C=N/C(=O)N(C)C)=C(/C)O` was tested, and the T/C (dose: 100.0 mg/kg/injection, schedule: Q04DX003 (ip), vehicle: saline with Tween-80) was 98 % of control, the T/C (dose: 200.0 mg/kg/injection, schedule: Q04DX003 (ip), vehicle: saline with Tween-80) was 104 % of control and the T/C (dose: 400.0 mg/kg/injection, schedule: Q04DX003 (ip), vehicle: saline with Tween-80) was 104 % of control.

For `Cn1nc(-c2ccccc2)[n+](C)n1`, the T/C (dose: 75.0 mg/kg/injection, schedule: Q01DX001 (ip), vehicle: saline) was 104 % of control, the T/C (dose: 150.0 mg/kg/injection, schedule: Q01DX001 (ip), vehicle: saline) was 100 % of control and the T/C (dose: 300.0 mg/kg/injection, schedule: Q01DX001 (ip), vehicle: saline) was 100 % of control.

With `O=C(O)CC(=O)c1cccc([N+](=O)[O-])c1` the T/C (dose: 100.0 mg/kg/injection, schedule: Q01DX001 (ip), vehicle: Klucel (hydroxypropylcellulose) (HPC)) was 104 % of control, the T/C (dose: 200.0 mg/kg/injection, schedule: Q01DX001 (ip), vehicle: Klucel (hydroxypropylcellulose) (HPC)) was 97 % of control and the T/C (dose: 400.0 mg/kg/injection, schedule: Q01DX001 (ip), vehicle: Klucel (hydroxypropylcellulose) (HPC)) was 96 % of control.

`CN(C)CCS(=O)(=O)O` was tested, and the T/C [4] was 104 % of control, the T/C [5] was 104 % of control and the T/C [6] was 104 % of control.

For `COc1nc2c(N)ncnc2n1C1OC(CO)C(O)C1O` (stereo not given), the T/C [1] was 97 % of control, the T/C [2] was 103 % of control and the T/C [3] was 103 % of control.

With `CS(=O)(=O)OCC(=O)NCCNC(=O)COS(C)(=O)=O` the T/C (dose: 25.0 mg/kg/injection, schedule: Q01DX Z (ip), vehicle: saline) was 109 % of control, the T/C (dose: 33.0 mg/kg/injection, schedule: Q01DX Z (ip), vehicle: carboxymethylcellulose (CMC)) was 113 % of control and 120 % of control and the T/C (dose: 47.0 mg/kg/injection, schedule: Q01DX Z (ip), vehicle: carboxymethylcellulose (CMC)) was 122 % of control. The T/C (dose: 50.0 mg/kg/injection, schedule: Q01DX015 (ip), vehicle: saline) was 108 % of control and 122 % of control, the T/C (dose: 50.0 mg/kg/injection, schedule: Q01DX Z (ip), vehicle: carboxymethylcellulose (CMC)) was 104 % of control and the T/C (dose: 50.0 mg/kg/injection, schedule: Q01DX Z (ip), vehicle: saline) was 109 % of control. The T/C (dose: 50.0 mg/kg/injection, schedule: Q04DX003 (ip), vehicle: carboxymethylcellulose (CMC)) was 111 % of control, the T/C (dose: 66.0 mg/kg/injection, schedule: Q01DX Z (ip), vehicle: carboxymethylcellulose (CMC)) was 106 % of control and the T/C (dose: 75.0 mg/kg/injection, schedule: Q01DX Z (ip), vehicle: carboxymethylcellulose (CMC)) was 120 % of control. The T/C (dose: 100.0 mg/kg/injection, schedule: Q01DX015 (ip), vehicle: saline) was 114 % of control, the T/C (dose: 100.0 mg/kg/injection, schedule: Q01DX Z (ip), vehicle: saline) was 115 % of control and the T/C (dose: 100.0 mg/kg/injection, schedule: Q04DX003 (ip), vehicle: carboxymethylcellulose (CMC)) was 110 % of control. For the same compound, the T/C (dose: 105.0 mg/kg/injection, schedule: Q01DX Z (ip), vehicle: carboxymethylcellulose (CMC)) was 154 % of control, the T/C (dose: 115.0 mg/kg/injection, schedule: Q01DX Z (ip), vehicle: carboxymethylcellulose (CMC)) was 120 % of control and the T/C (dose: 175.0 mg/kg/injection, schedule: Q01DX Z (ip), vehicle: carboxymethylcellulose (CMC)) was 118 % of control. For the same compound, the T/C (dose: 180.0 mg/kg/injection, schedule: Q01DX009 (ip), vehicle: saline) was 168 % of control, the T/C (dose: 200.0 mg/kg/injection, schedule: Q04DX003 (ip), vehicle: carboxymethylcellulose (CMC)) was 119 % of control and the T/C [5] was 111 % of control. For the same compound, the T/C (dose: 225.0 mg/kg/injection, schedule: Q01DX Z (ip), vehicle: carboxymethylcellulose (CMC)) was 92 % of control, the T/C (dose: 256.0 mg/kg/injection, schedule: Q01DX009 (ip), vehicle: saline) was 161 % of control and 169 % of control and the T/C (dose: 400.0 mg/kg/injection, schedule: Q01DX015 (ip), vehicle: saline) was 162 % of control. The T/C (dose: 400.0 mg/kg/injection, schedule: Q01DX Z (ip), vehicle: carboxymethylcellulose (CMC)) was 102 % of control, the T/C (dose: 400.0 mg/kg/injection, schedule: Q01DX Z (ip), vehicle: saline) was 105 % of control and the T/C [6] was 116 % of control. The T/C (dose: 800.0 mg/kg/injection, schedule: Q04DX003 (ip), vehicle: saline) was 116 % of control.

In the case of `O=C(OCCOc1ccccc1)c1ccc([N+](=O)[O-])cc1`, the T/C [1] is reported as 100 % of control, the T/C [2] is reported as 98 % of control and the T/C [3] is reported as 116 % of control.

`Cc1ccc(-c2ccc(C)cc2[N+](=O)[O-])cc1` was tested, and the T/C (dose: 100.0 mg/kg/injection, schedule: Q01DX001 (ip), vehicle: carboxymethylcellulose (CMC)) was 91 % of control, the T/C (dose: 200.0 mg/kg/injection, schedule: Q01DX001 (ip), vehicle: carboxymethylcellulose (CMC)) was 100 % of control and the T/C (dose: 400.0 mg/kg/injection, schedule: Q01DX001 (ip), vehicle: carboxymethylcellulose (CMC)) was 102 % of control.

For `C=NN=C(NN=C)NN=C`, the T/C (dose: 15.0 mg/kg/injection, schedule: Q01DX Z (ip), vehicle: methylcellulose (MC)) was 105 % of control, the T/C (dose: 30.0 mg/kg/injection, schedule: Q01DX Z (ip), vehicle: methylcellulose (MC)) was 114 % of control and the T/C (dose: 60.0 mg/kg/injection, schedule: Q01DX Z (ip), vehicle: methylcellulose (MC)) was 97 % of control. The T/C (dose: 120.0 mg/kg/injection, schedule: Q01DX Z (ip), vehicle: methylcellulose (MC)) was 104 % of control, the T/C (dose: 120.0 mg/kg/injection, schedule: Q01DX Z (oral), vehicle: methylcellulose (MC)) was 104 % of control and the T/C (dose: 480.0 mg/kg/injection, schedule: Q01DX Z (oral), vehicle: methylcellulose (MC)) was 93 % of control.

For `CC[n+]1ccc(Nc2ccc(/C=C/c3ccc4cc(Nc5cc[n+](CC)cc5)ccc4[n+]3CC)cc2)cc1`, the T/C (dose: 2.5 mg/kg/injection, schedule: Q01DX009 (ip), vehicle: saline) was 112 % of control and 119 % of control and 120 % of control, the T/C (dose: 5.0 mg/kg/injection, schedule: Q01DX009 (ip), vehicle: saline) was 150 % of control and the T/C (dose: 10.0 mg/kg/injection, schedule: Q01DX009 (ip), vehicle: saline) was 182 % of control and 209 % of control. For the same compound, the T/C (dose: 12.5 mg/kg/injection, schedule: Q01DX001 (ip), vehicle: saline) was 100 % of control, the T/C (dose: 25.0 mg/kg/injection, schedule: Q01DX001 (ip), vehicle: saline) was 100 % of control and the T/C (dose: 50.0 mg/kg/injection, schedule: Q01DX001 (ip), vehicle: saline) was 112 % of control.

For `S=c1cc(S)c(=S)[nH][nH]1`, the T/C (dose: 5.0 mg/kg/injection, schedule: Q01DX001 (ip), vehicle: other) was 98 % of control, the T/C (dose: 10.0 mg/kg/injection, schedule: Q01DX001 (ip), vehicle: other) was 96 % of control and the T/C (dose: 20.0 mg/kg/injection, schedule: Q01DX001 (ip), vehicle: other) was 96 % of control.

For `Oc1ccccc1C=NC1CCCCC1.Oc1ccccc1C=NC1CCCCC1.[Ni+2]`, the T/C (dose: 100.0 mg/kg/injection, schedule: Q04DX003 (ip), vehicle: Klucel (hydroxypropylcellulose) (HPC)) was 96 % of control, the T/C [4] was 94 % of control and the T/C (dose: 200.0 mg/kg/injection, schedule: Q04DX003 (ip), vehicle: Klucel (hydroxypropylcellulose) (HPC)) was 92 % of control. For the same compound, the T/C [5] was 96 % of control and the T/C (dose: 400.0 mg/kg/injection, schedule: Q04DX003 (ip), vehicle: Klucel (hydroxypropylcellulose) (HPC)) was 90 % of control.
